Like-named read-outs stand apart in the source and are kept apart here.
Target: T1, recombinant human NaV1.8 stably transfected HEK cells (Homo sapiens, UniProt Q9Y5Y9)
T1 construct: expressed in transfected cells; host or cells: HEK cells, stably transfected
Assay: Compound profiling on NaV1.8, human NaV1.8 cell line, SyncroPatch384PE automated patch clamp assay (Example 102, first set of compounds, Table 16)
Format: cell-based
Conditions: human NaV1.8 HEK cells, Table 16 (first set of compounds)
Method in brief: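 Automated whole-cell patch clamp on HEK cells precultured at 30 °C one day before recording; CsF-based internal, 140 mM NaCl external. 10-point curve, 20–0.001 μM final, 0.1% DMSO, 5 min exposure. IC50 for resting (P1, −120 mV hold) and inactivated (P2, after 10 s at −40 mV) block, normalized to 250 μM tetracaine and DMSO.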

[1] = inactivated state block (P2 measurement), read-out: P2IC50
[2] = resting state block (P1 measurement), read-out: P1IC50

T1 sequence (Q9Y5Y9 whole entry): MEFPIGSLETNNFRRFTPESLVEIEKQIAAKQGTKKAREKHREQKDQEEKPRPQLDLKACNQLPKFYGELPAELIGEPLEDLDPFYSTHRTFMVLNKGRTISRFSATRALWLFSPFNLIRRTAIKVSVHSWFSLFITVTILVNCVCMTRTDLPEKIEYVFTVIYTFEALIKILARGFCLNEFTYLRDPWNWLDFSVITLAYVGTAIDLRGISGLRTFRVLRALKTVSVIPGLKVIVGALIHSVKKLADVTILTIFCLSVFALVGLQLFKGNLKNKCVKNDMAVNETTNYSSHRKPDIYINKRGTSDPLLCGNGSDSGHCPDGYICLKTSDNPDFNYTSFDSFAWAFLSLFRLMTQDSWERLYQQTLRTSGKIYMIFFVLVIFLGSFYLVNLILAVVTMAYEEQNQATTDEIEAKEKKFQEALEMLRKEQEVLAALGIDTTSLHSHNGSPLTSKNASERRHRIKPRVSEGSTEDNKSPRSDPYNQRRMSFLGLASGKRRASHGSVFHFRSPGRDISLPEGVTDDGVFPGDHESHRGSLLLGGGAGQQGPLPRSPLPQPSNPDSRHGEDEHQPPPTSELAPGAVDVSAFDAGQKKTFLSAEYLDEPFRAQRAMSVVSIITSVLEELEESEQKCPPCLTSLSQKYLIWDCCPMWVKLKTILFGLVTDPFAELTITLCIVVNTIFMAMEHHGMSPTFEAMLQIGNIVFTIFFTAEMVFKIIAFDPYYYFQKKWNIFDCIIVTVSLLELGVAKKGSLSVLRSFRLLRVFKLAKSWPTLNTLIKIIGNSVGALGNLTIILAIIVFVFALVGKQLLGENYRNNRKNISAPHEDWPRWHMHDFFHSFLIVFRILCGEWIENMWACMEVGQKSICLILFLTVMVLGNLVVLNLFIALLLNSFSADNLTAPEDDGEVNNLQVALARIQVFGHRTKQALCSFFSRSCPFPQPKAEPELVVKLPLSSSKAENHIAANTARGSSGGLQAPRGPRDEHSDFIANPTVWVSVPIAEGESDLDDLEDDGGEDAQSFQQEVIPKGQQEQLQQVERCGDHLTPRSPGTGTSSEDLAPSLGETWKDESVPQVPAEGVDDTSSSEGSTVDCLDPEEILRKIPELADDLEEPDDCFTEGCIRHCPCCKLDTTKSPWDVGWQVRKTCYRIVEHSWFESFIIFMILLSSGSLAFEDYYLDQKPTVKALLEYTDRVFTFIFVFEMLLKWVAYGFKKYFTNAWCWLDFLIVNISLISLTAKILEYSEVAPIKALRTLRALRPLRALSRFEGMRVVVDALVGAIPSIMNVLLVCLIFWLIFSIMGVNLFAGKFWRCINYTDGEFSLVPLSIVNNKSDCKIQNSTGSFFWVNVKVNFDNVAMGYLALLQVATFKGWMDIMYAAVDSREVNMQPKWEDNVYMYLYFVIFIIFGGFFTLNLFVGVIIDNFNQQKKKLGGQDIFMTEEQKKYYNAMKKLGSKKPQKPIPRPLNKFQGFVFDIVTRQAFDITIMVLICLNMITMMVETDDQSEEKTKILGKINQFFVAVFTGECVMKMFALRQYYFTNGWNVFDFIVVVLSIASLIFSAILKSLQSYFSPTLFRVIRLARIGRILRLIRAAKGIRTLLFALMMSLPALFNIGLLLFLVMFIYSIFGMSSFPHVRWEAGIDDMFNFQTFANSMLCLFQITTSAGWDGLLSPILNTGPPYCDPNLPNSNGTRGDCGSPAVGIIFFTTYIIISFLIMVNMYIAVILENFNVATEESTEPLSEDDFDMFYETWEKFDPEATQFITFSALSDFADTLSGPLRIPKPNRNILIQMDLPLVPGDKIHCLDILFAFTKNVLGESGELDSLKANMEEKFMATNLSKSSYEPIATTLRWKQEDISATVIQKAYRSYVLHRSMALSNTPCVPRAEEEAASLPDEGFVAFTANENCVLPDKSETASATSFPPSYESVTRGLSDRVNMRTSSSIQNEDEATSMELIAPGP

SMILES	IC50 [1] [nM]	IC50 [2] [nM]
COc1cc(C#N)ccc1Oc1nnc(C(F)(F)F)c(C)c1C(=O)Nc1cccnc1 [Compound 1543, 3-(4-cyano-2-methoxy-phenoxy)-5-methyl-N-(3-pyridyl)-6-(trifluoromethyl)pyridazine-4-carboxamide]	40 to 200	40 to 200
Cc1c(C(F)(F)F)nnc(Oc2ccc(OC(C)C)c(F)c2F)c1C(=O)Nc1cccc(S(C)(=O)=O)c1 [Compound 1424]	≤ 20	≤ 20
CS(=N)(=O)c1cccc(NC(=O)c2cc(C(F)(F)F)cnc2Oc2ccc(OCc3ccccc3)cc2)c1 (stereo not shown) [Compound 1587]	40 to 200	40 to 200
CS(=N)(=O)c1cccc(NC(=O)c2cc(C(F)(F)F)cnc2Oc2cccnc2OC(F)(F)F)c1 (single isomer, unassigned) [Compound 1643]	–	≤ 20
COc1cc(C#N)ccc1Oc1nc(C(F)(F)F)nc(C)c1C(=O)Nc1ccc(C(N)=O)cc1 [Compound 1744, N-(4-carbamoylphenyl)-4-(4-cyano-2-methoxy-phenoxy)-6-methyl-2-(trifluoromethyl)pyrimidine-5-carboxamide]	40 to 200	40 to 200
Cn1ccc2c(Oc3ncc(C(F)(F)F)cc3C(=O)Nc3cccc(S(C)(=O)=O)c3)cccc21 [Compound 1624]	200 to 500	200 to 500
Cc1cc(F)ccc1Oc1nnc(C(F)(F)F)c(C)c1C(=O)Nc1ccc(C(N)=O)cc1 [Compound 1416]	40 to 200	40 to 200
COc1cc(C#N)ccc1Oc1nnc(C(F)(F)F)c(C)c1C(=O)Nc1cccc(C#N)c1 [Compound 1548, 3-(4-cyano-2-methoxy-phenoxy)-N-(3-cyanophenyl)-5-methyl-6-(trifluoromethyl)pyridazine-4-carboxamide]	20 to 40	20 to 40
Cc1c(C#N)ccc(Oc2ncc(C(F)(F)F)cc2C(=O)Nc2cccc(C(N)=O)c2)c1F [Compound 1697]	20 to 40	20 to 40
COC(=O)c1cccc(NC(=O)c2c(Oc3ccc(C#N)cc3OC)nnc(C(F)(F)F)c2C)c1 [Compound 1546, methyl 3-[[3-(4-cyano-2-methoxy-phenoxy)-5-methyl-6-(trifluoromethyl)pyridazine-4-carbonyl]amino]benzoate]	40 to 200	40 to 200
CS(=N)(=O)c1cccc(NC(=O)c2cc(C(F)(F)F)cnc2Oc2cccnc2OC(F)(F)F)c1 (single isomer, unassigned) [Compound 1642]	≤ 20	≤ 20
Cc1c(C(F)(F)F)nnc(Oc2ccc(OC(F)F)c(F)c2F)c1C(=O)Nc1cccc(S(C)(=O)=O)c1 [Compound 1422]	≤ 20	≤ 20
CSc1cccc(Oc2ncc(C(F)(F)F)cc2C(=O)Nc2cccc(S(C)(=O)=O)c2)c1 [Compound 1656]	40 to 200	40 to 200
N#CC1CC(Oc2ncc(C(F)(F)F)cc2C(=O)Nc2ccc(C(N)=O)cc2)C1 (mixture of isomers) [Compound 1671]	200 to 500	200 to 500
CS(=O)(=O)c1cccc(NC(=O)c2cc(C(F)(F)F)cnc2Oc2cnc(Cl)c3ccccc23)c1 [Compound 1582]	200 to 500	200 to 500
Cc1nc(C#N)ccc1Oc1ncc(C(F)(F)F)cc1C(=O)Nc1cccc(C(N)=O)c1 [Compound 1700]	200 to 500	200 to 500
CC(C)Oc1ccc(Oc2ncc(C(F)(F)F)cc2C(=O)Nc2cccc(C(N)=O)c2)c(F)c1F [Compound 1709]	20 to 40	≤ 20
N#Cc1cc(F)ccc1Oc1ncc(C(F)(F)F)cc1C(=O)Nc1cccc(C(N)=O)c1 [Compound 1692]	40 to 200	40 to 200
COc1c(Oc2nnc(C(F)(F)F)c(C)c2C(=O)Nc2cccc(C(N)=O)c2)ccc(F)c1F [Compound 1549, N-(3-carbamoylphenyl)-3-(3,4-difluoro-2-methoxy-phenoxy)-5-methyl-6-(trifluoromethyl)pyridazine-4-carboxamide]	≤ 20	≤ 20
Cc1nc(C#N)ccc1Oc1ncc(C(F)(F)F)cc1C(=O)Nc1cccc(S(C)(=O)=O)c1 [Compound 1693]	≤ 20	≤ 20

Continued, values first:

IC50 [1] [nM]	IC50 [2] [nM]	SMILES
≤ 20	≤ 20	COc1c(Oc2nnc(C(F)(F)F)c(C)c2C(=O)Nc2cccc(S(C)(=N)=O)c2)ccc(Cl)c1F (stereo not shown) [Compound 1489, 3-(4-chloro-3-fluoro-2-methoxy-phenoxy)-5-methyl-N-[3-(methylsulfonimidoyl)phenyl]-6-(trifluoromethyl)pyridazine-4-carboxamide]
200 to 500	200 to 500	Cc1cc(F)ccc1Oc1nnc(C(F)(F)F)c(C)c1C(=O)Nc1cc(C(N)=O)cc(S(C)(=O)=O)c1 [Compound 1407]
200 to 500	200 to 500	Cc1cc(F)ccc1Oc1nnc(C(F)(F)F)c(NC2CNC2)c1C(=O)Nc1cccc([S@@](C)(=N)=O)c1 [Compound 1523, (S)-5-(azetidin-3-ylamino)-3-(4-fluoro-2-methylphenoxy)-N-(3-(S-methylsulfonimidoyl)phenyl)-6-(trifluoromethyl)pyridazine-4-carboxamide]
200 to 500	200 to 500	COc1cc(C#N)ccc1Oc1nnc(C2=CCN(C)CC2)c(C)c1C(=O)Nc1cccc(S(C)(=N)=O)c1 (stereo not shown) [Compound 1555, 3-(4-cyano-2-methoxy-phenoxy)-5-methyl-6-(1-methyl-3,6-dihydro-2H-pyridin-4-yl)-N-[3-(methylsulfonimidoyl)phenyl]pyridazine-4-carboxamide]
–	≤ 20	Cc1c(C(F)(F)F)nnc(Oc2ccc(Cl)cc2F)c1C(=O)Nc1cccc(S(C)(=N)=O)c1 (single isomer, unassigned) [Compound 1472, 3-(4-chloro-2-fluoro-phenoxy)-5-methyl-N-[3-(methylsulfonimidoyl)phenyl]-6-(trifluoromethyl)pyridazine-4-carboxamide]
≤ 20	≤ 20	COc1c(Oc2nnc(C(F)(F)F)c(C)c2C(=O)Nc2cccc(S(C)(=N)=O)c2)ccc(F)c1F (single isomer, unassigned) [Compound 1473, 3-(3,4-difluoro-2-methoxy-phenoxy)-5-methyl-N-[3-(methylsulfonimidoyl)phenyl]-6-(trifluoromethyl)pyridazine-4-carboxamide]
≤ 20	≤ 20	Cc1cc(F)ccc1Oc1ncc(Br)c(C)c1C(=O)Nc1cccc([S@@](C)(=N)=O)c1 [Compound 1728, 5-bromo-2-(4-fluoro-2-methylphenoxy)-N-{3-[(S)-imino(methyl)oxo-λ^6-sulfanyl]phenyl}-4-methylpyridine-3-carboxamide]
40 to 200	40 to 200	COc1ccc(Oc2nnc(C(F)(F)F)c(C)c2C(=O)Nc2cccc(S(C)(=N)=O)c2)c(C)n1 (single isomer, unassigned) [Compound 1508, N-{3-[imino(methyl)oxo-λ^6-sulfanyl]phenyl}-3-[(6-methoxy-2-methylpyridin-3-yl)oxy]-5-methyl-6-(trifluoromethyl)pyridazine-4-carboxamide]
≤ 20	≤ 20	Cc1nc(F)ccc1Oc1ncc(C(F)(F)F)c(C)c1C(=O)Nc1cccc([S@](C)(=N)=O)c1 [Compound 1559, (R)-2-((6-fluoro-2-methylpyridin-3-yl)oxy)-4-methyl-N-(3-(S-methylsulfonimidoyl)phenyl)-5-(trifluoromethyl)nicotinamide]
≤ 20	≤ 20	COc1ccc(Oc2nnc(C(F)(F)F)c(C)c2C(=O)Nc2cccc(S(C)(=N)=O)c2)c(C)c1F (single isomer, unassigned) [Compound 1505, 3-(3-fluoro-4-methoxy-2-methylphenoxy)-N-{3-[imino(methyl)oxo-λ^6-sulfanyl]phenyl}-5-methyl-6-(trifluoromethyl)pyridazine-4-carboxamide]
200 to 500	200 to 500	COc1cc(C#N)ccc1Oc1nnc(-c2ncco2)c(C)c1C(=O)Nc1cccc(S(C)(=N)=O)c1 (stereo not shown) [Compound 1462, 3-(4-cyano-2-methoxy-phenoxy)-5-methyl-N-[3-(methylsulfonimidoyl)phenyl]-6-oxazol-2-yl-pyridazine-4-carboxamide; formic acid]
200 to 500	200 to 500	COc1cc(C#N)ccc1Oc1nnc(-c2ccc(C)nc2)c(C)c1C(=O)Nc1cccc(S(C)(=N)=O)c1 (stereo not shown) [Compound 1455, 3-(4-cyano-2-methoxy-phenoxy)-5-methyl-6-(6-methyl-3-pyridyl)-N-[3-(methylsulfonimidoyl)phenyl]pyridazine-4-carboxamide]
≤ 20	20 to 40	Cc1cc(C(F)(F)F)ccc1Oc1ncc(C(F)(F)F)cc1C(=O)Nc1cccc(S(C)(=O)=O)c1 [Compound 1595]
≤ 20	≤ 20	Cc1nc(F)ccc1Oc1ncc(C(F)(F)F)c(C)c1C(=O)Nc1cccc([S@@](C)(=N)=O)c1 [Compound 1560, (S)-2-((6-fluoro-2-methylpyridin-3-yl)oxy)-4-methyl-N-(3-(S-methylsulfonimidoyl)phenyl)-5-(trifluoromethyl)nicotinamide]
≤ 20	≤ 20	CS(=N)(=O)c1cccc(NC(=O)c2cc(C(F)(F)F)cnc2Oc2ccc(OC(F)F)c(F)c2)c1 (stereo not shown) [Compound 1644]
200 to 500	200 to 500	Cc1cc(F)ccc1Oc1nnc(N2CC(F)C2)c(C)c1C(=O)Nc1cccc(S(C)(=N)=O)c1 (stereo not shown) [Compound 1431, 6-(3-Fluoroazetidin-1-yl)-3-(4-fluoro-2-methyl-phenoxy)-5-methyl-N-[3-(methylsulfonimidoyl)phenyl]pyridazine-4-carboxamide]
